Here are results for twelve compounds from ChEMBL document CHEMBL1201862, “PubChem BioAssay data set” (2004).

Assay in all cases: growth of human tumour cells (NCI), 48 h
For assay [1], the system named is CAKI-1.
The test system of assay [2] is COLO 205.
The subject of assay [3] is EKVX.
In assay [4] the test system is HCT-116.
Assay [5] has as its system HCT-15.
Assay [6] has as its system HL-60.
Assay [7] relates to MOLT-4.
The subject of assay [8] is NCI-H226.
In assay [9] the test system is NCI-H460.
Assay [10] relates to OVCAR-5.
For assay [11], the system named is PC-3.
For assay [12], the system named is SF-268.
In assay [13] the test system is SK-OV-3.
The test system of assay [14] is SN12C.
Assay [15] relates to SNB-75.
For assay [16], the system named is SR.
Assay [17] concerns UACC-257.
For assay [18], the system named is UO-31.
Assay [19] has as its system HOP-92.
The test system of assay [20] is MDA-MB-435.

Structures are written as SMILES.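 These data come from cells grown in 96-well plates and exposed to compound for 48 hours at five concentrations. GI50 is the concentration that inhibits growth by half.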 Activity calls are given as the source filed them. No stated cut-off is given here; in the data, active = GI50 up to about 1.1 µM and inactive = higher.

On to `COCCNc1cncc(C(N)=O)c1`, for which the GI50 was > 100 µM (inactive) in assay [1]; > 100 µM (inactive) in assay [2]; > 100 µM (inactive) in assay [3]; > 100 µM (inactive) in [4]; above 100 µM in [5]; > 100 µM (inactive) in [6]. In addition, the GI50 in assay [7], in [8], in assay [9], in assay [10], in assay [11] and in [12] was > 100 µM (inactive) each time. Also, the GI50 in assay [13] was > 100 µM (inactive); in assay [14] it was > 100 µM (inactive); in [15] it was 87.9 µM (inactive); in [16], > 100 µM (inactive); in [17], > 100 µM (inactive); in [18] it was > 100 µM (inactive).

Consider `CC(C)C(N)C(=O)NC(CCC(=O)NCCCCC(N)C(=O)NCCCNc1ccc([N+](=O)[O-])c2[nH]c3ccccc3c(=O)c12)C(N)=O` (stereo not drawn), for which the GI50 in [1] was > 100 µM (inactive); in [2] it was 68.9 µM (inactive); in [3], > 100 µM (inactive); in assay [4] it was 21.7 µM (inactive); in assay [5] it was 41.2 µM; in [19], 24.4 µM (inactive). Moreover, the GI50 in [20] is 67.9 µM (inactive); in assay [8] it was 50.9 µM (inactive); in [9] it was 12.5 µM (inactive); in assay [10], > 100 µM (inactive); in assay [11] it was 56.6 µM (inactive); in assay [12], 58.7 µM (inactive). For the same compound, the GI50 is 44.3 µM (inactive) in assay [13], 48.9 µM (inactive) in assay [15], > 100 µM (inactive) in assay [17] and 24.4 µM (inactive) in [18].

Turning to `C/C(=N\NS(=O)(=O)c1ccc(C)cc1)P(=O)(O)O`, the GI50 is > 100 µM (inactive) in assay [1]; > 100 µM (inactive) in assay [2]; > 100 µM (inactive) in [3]; > 100 µM (inactive) in assay [4]; above 100 µM in assay [5]; > 100 µM (inactive) in [19]. For the same compound, the GI50 in assay [20], in [8], in assay [9], in assay [10], in assay [11] and in assay [12] was > 100 µM (inactive) throughout. Also, the GI50 in assay [13], in [14], in assay [15], in [17] and in [18] was > 100 µM (inactive) in each case.

Consider `O=C(CC(=O)n1nc(-c2ccccc2)c(/N=N/c2ccc(Cl)cc2)c1-c1ccccc1)Nc1ccc(Cl)cc1`, for which the GI50 was > 100 µM (inactive) in [1]; > 46.9 µM (inactive) in assay [2]; > 100 µM (inactive) in [3]; > 39.9 µM (inactive) in [4]; above 41.7 µM in assay [5]; > 100 µM (inactive) in assay [6]. Besides, the GI50 in assay [19] is > 91 µM (inactive); in [7] it was > 100 µM (inactive); in assay [8] it was > 100 µM (inactive); in [9], > 43.4 µM (inactive); in assay [10] it was > 100 µM (inactive); in [12] it was > 88.7 µM (inactive). Moreover, the GI50 is > 100 µM (inactive) in assay [13]; > 100 µM (inactive) in [14]; > 50.5 µM (inactive) in assay [15]; > 100 µM (inactive) in [16]; > 49.2 µM (inactive) in assay [17]; > 100 µM (inactive) in [18].

Turning to `N#C/N=C(/N)NCO`, the GI50 in [1] was > 100 µM (inactive); in assay [2] it was > 42.1 µM (inactive); in [3], > 100 µM (inactive); in assay [4], > 46 µM (inactive); in assay [5], above 40 µM; in [6], > 100 µM (inactive). Also, the GI50 in [19] is > 100 µM (inactive); in [7], > 100 µM (inactive); in assay [8], > 100 µM (inactive); in [9] it was > 78 µM (inactive); in assay [10], > 100 µM (inactive); in [12], 63.5 µM (inactive). The GI50 is > 100 µM (inactive) in assay [13]; > 100 µM (inactive) in assay [14]; > 100 µM (inactive) in assay [15]; 9.29 µM (inactive) in assay [16]; > 100 µM (inactive) in assay [17]; > 100 µM (inactive) in [18].

With `N#Cc1c(-c2ccccc2)cc(-c2ccccc2)n(C2OCC(O)C(O)C2O)c1=S` (stereo not drawn), the GI50 was 32.5 µM (inactive) in assay [1]; 20.1 µM (inactive) in [2]; 36.2 µM (inactive) in assay [3]; 14.7 µM (inactive) in assay [4]; 25.4 µM in assay [5]; 19 µM (inactive) in assay [20]. For the same compound, the GI50 was 16.7 µM (inactive) in assay [7]; 16.9 µM (inactive) in assay [8]; 15.4 µM (inactive) in [9]; 24.8 µM (inactive) in [10]; 14.6 µM (inactive) in assay [11]; 23.4 µM (inactive) in assay [12]. Also, the GI50 in assay [13] was 11.7 µM (inactive); in [14], > 10 µM (inactive); in assay [15], 24.9 µM (inactive); in assay [17], 33.3 µM (inactive); in assay [18], 19 µM (inactive).

In the case of `N=C(N)SCC(=O)O`, the GI50 was > 100 µM (inactive) in assay [1]; > 100 µM (inactive) in [2]; > 100 µM (inactive) in assay [3]; > 100 µM (inactive) in assay [4]; above 100 µM in assay [5]; > 100 µM (inactive) in assay [19]. Further, the GI50 in assay [20], in [7], in assay [8], in assay [9], in assay [10] and in assay [11] was > 100 µM (inactive) each time. Further, the GI50 in assay [12], in assay [13], in assay [14], in [15], in assay [17] and in assay [18] was > 100 µM (inactive) each time.

With `O=C1NCC2(CCNCC2)N1`, the GI50 in assay [2] is > 100 µM (inactive); in assay [3], > 100 µM (inactive); in assay [4], > 100 µM (inactive); in [5], above 100 µM; in assay [6], > 100 µM (inactive); in assay [19], > 100 µM (inactive). In addition, the GI50 in [20], in assay [7], in assay [8], in [9], in assay [10] and in [12] was > 100 µM (inactive) in each case. Moreover, the GI50 in assay [13], in assay [14], in [15], in assay [16], in assay [17] and in assay [18] was > 100 µM (inactive) throughout.

`C/C=C1\CC(C(=O)OCC)CCCCCCC1=O` (stereo not drawn): the GI50 in assay [1] is > 100 µM (inactive); in [2] it was > 100 µM (inactive); in assay [3] it was > 100 µM (inactive); in assay [4], > 100 µM (inactive); in assay [5] it was above 100 µM; in assay [6], 51.1 µM (inactive). Moreover, the GI50 in assay [20], in [7], in [8], in assay [10], in assay [11] and in [12] was > 100 µM (inactive) each time. In addition, the GI50 is > 100 µM (inactive) in assay [13]; > 100 µM (inactive) in [14]; 69 µM (inactive) in [15]; > 100 µM (inactive) in assay [17]; > 100 µM (inactive) in [18].

`COc1ccccc1CNCCCCCNCCCCCCCCCCNCCCCCNCc1ccccc1OC`: the GI50 was 34.3 µM (inactive) in [2]; 11.8 µM (inactive) in assay [4]; above 100 µM in [5]; 21.8 µM (inactive) in assay [6]; 34.5 µM (inactive) in assay [19]; 57.4 µM (inactive) in assay [20]. In addition, the GI50 in assay [7] is 13.6 µM (inactive); in assay [8], 18.1 µM (inactive); in assay [9], 13.8 µM (inactive); in [12], 39.4 µM (inactive); in assay [14], 27.4 µM (inactive); in [15], 25.6 µM (inactive). Besides, the GI50 in [16] is 14.9 µM (inactive); in assay [18] it was 42 µM (inactive).

Turning to `CN(CC(=O)Nc1ccccc1C(=O)O)c1ccccc1`, the GI50 is > 100 µM (inactive) in assay [1]; > 100 µM (inactive) in [3]; 84.3 µM (inactive) in [4]; 67.1 µM in assay [5]; > 100 µM (inactive) in [6]; > 100 µM (inactive) in assay [19]. Besides, the GI50 in assay [7], in [8], in assay [9], in assay [10], in [11] and in assay [12] was > 100 µM (inactive) each time. Moreover, the GI50 in [14] was 40.6 µM (inactive); in assay [15], > 100 µM (inactive); in [16] it was > 100 µM (inactive); in assay [17], > 100 µM (inactive); in [18], > 100 µM (inactive).

`Cc1ccc(S(=O)(=O)NC(=O)Nc2ccc(C(=O)O)cc2)cc1`: the GI50 in assay [2] is > 100 µM (inactive); in assay [4], > 100 µM (inactive); in assay [5], above 100 µM; in assay [6] it was > 100 µM (inactive); in assay [19] it was > 100 µM (inactive); in [7] it was > 100 µM (inactive). In addition, the GI50 in assay [9], in assay [10], in [11], in [12], in assay [13] and in [14] was > 100 µM (inactive) in each case. For the same compound, the GI50 in [15], in [17] and in assay [18] was > 100 µM (inactive) throughout.
